Assay results published in publication PMC3269340, “Pharmacokinetics of memantine in rats and mice” (PLoS Currents, 2012).
Like-named read-outs stand apart in the source and are kept apart here.

Test: Pharmacokinetics in rats after single iv, po or sc dose (plasma and brain)
Format: in vivo, Sprague-Dawley rats
Conditions: male, Sprague-Dawley; for Kp: brain/plasma, read-out: Ratio of Brain-to-Plasma AUC(0-∞); for Vd: read-out: Volume of Distribution at Steady State (Vdss); for bioavailability: read-out: Bioavailability (F); for AUC(0-inf): read-out: AUC(0-∞); for Cmax: read-out: Observed Cmax
Protocol: Sprague Dawley (SD) rats (138 adult males), and C57Bl/6 mice (140 adult males), were obtained (Hilltop Laboratories, Scottsdale, PA); 123 per species were used in the study and the remainder provided blank matrix. Animals were individually identified by tail markings and were acclimated to the study environment for 16-21 days prior to dose administration. Animals were individually housed in suspended wire caging, and were kept on a 12h/12h light/dark cycle except when interrupted for study procedures. Average room temperature was regulated in the range 18 to 29°C, average relative humidity of 30-70%, and an average daily airflow >10 fresh air changes/h. Animals were fed LabDiet^Ò Certified Rodent Diet 5002 Meal food ad libitum, except during fasting prior to dose administration, and had access to water ad libitum.
[…] […] The concentration of memantine for the same dose level administered to mice was 0.2 mg eq./mL, and the dose volume was 5 mL/kg. The concentration of memantine in the 10mg eq./kg po and sc solutions was 5 mg eq./mL and the dose volume was 2 mL/kg for both rats and mice.
Details of the dose administration, body weights, clinical observations, plasma and brain sample collection and preparation are not shown in this report but are available upon request. Blood (for preparation of plasma) and brain samples were collected at 0.08, 0.25, 0.5, 1, 2, 4, 8, and 24h post-dose.
Since all time points were terminal, mean memantine concentrations per time point were used to calculate the composite PK parameters by non-compartmental analysis using WinNonlin program, version 5.2 (Pharsight Corp., Mountain View, California). A model was selected based on the vascular (iv bolus) or extravascular (po or sc) routes of administration. For the iv route, plasma concentration at time zero was back extrapolated from the first two observed post dose plasma concentrations. For the po and sc routes, concentration at time zero was assumed to be zero. Plasma and tissue concentrations below the limit of quantitation were treated as absent samples for the purpose of calculating the mean plasma concentration values or for calculating PK parameters.
The area under the plasma concentration versus time curve (AUC) was calculated using the linear trapezoidal method (linear interpolation). When appropriate, the terminal elimination phase of the PK profile was estimated based on the best fit (r^2) using at least the last three observed concentrations. PK parameters describing the systemic exposure of memantine in plasma and brain were estimated from observed (rather than predicted) plasma/brain concentrations, the dosing regimen, the AUC, and the terminal elimination phase rate constant (kel) for each group. The portion of the AUC from the last measurable concentration to infinity was estimated from the equation Ct/kel, where Ct represents the last measurable concentration. The extrapolated portion of the AUC was used for the determination of AUC0-∞. The percent bioavailability (%F) was calculated by dividing the dose normalized extravascular plasma AUC0-∞ by the dose normalized iv plasma AUC0-∞ times 100. The bioavailability calculations assumed concentrations were in the linear range.
Concentrations of memantine in rat and mouse plasma and brain were determined using an LC-MS/MS assay developed at ABC Laboratories.

[1] = rat, brain, iv, 1.22 mg/kg, rat brain, IV 1.22 mg eq./kg
[2] = rat, brain, po, 1.22 mg/kg, rat brain, PO 1.22 mg eq./kg
[3] = rat, brain, po, 10 mg/kg, rat brain, PO 10.0 mg eq./kg
[4] = rat, brain, sc, 1 mg/kg, rat brain, SC 1.0 mg eq./kg
[5] = rat, brain, sc, 10 mg/kg, rat brain, SC 10.0 mg eq./kg

## CC12CC3CC(C)(C1)CC(N)(C3)C2 [memantine]
1 mg/kg, rat brain, SC 1.0 mg eq./kg
  AUC(0-t): 48 µM·h
1 mg/kg, rat brain, SC 1.0 mg eq./kg, read-out: Observed Tmax
  Tmax: 0.5 h
1 mg/kg, rat plasma, SC 1.0 mg eq./kg
  AUC(0-t): 1.62 µM·h
1 mg/kg, rat plasma, SC 1.0 mg eq./kg, read-out: Observed Tmax
  Tmax: 0.25 h
1.22 mg/kg, rat brain, IV 1.22 mg eq./kg
  AUC(0-t): 43 µM·h
1.22 mg/kg, rat brain, IV 1.22 mg eq./kg, read-out: Observed Tmax
  Tmax: 0.5 h
1.22 mg/kg, rat brain, PO 1.22 mg eq./kg
  AUC(0-t): 13.1 µM·h
1.22 mg/kg, rat brain, PO 1.22 mg eq./kg, read-out: Observed Tmax
  Tmax: 2 h
1.22 mg/kg, rat plasma, IV 1.22 mg eq./kg
  AUC(0-t): 1.57 µM·h
1.22 mg/kg, rat plasma, IV 1.22 mg eq./kg, read-out: Mean Residency Time (MRT0-∞)
  MRT inf: 2.08 h
1.22 mg/kg, rat plasma, PO 1.22 mg eq./kg
  AUC(0-t): 0.541 µM·h
1.22 mg/kg, rat plasma, PO 1.22 mg eq./kg, read-out: Observed Tmax
  Tmax: 1 h
10 mg/kg, rat brain, PO 10.0 mg eq./kg
  AUC(0-t): 254 µM·h
10 mg/kg, rat brain, PO 10.0 mg eq./kg, read-out: Observed Tmax
  Tmax: 2 h
10 mg/kg, rat brain, SC 10.0 mg eq./kg
  AUC(0-t): 441 µM·h
10 mg/kg, rat brain, SC 10.0 mg eq./kg, read-out: Observed Tmax
  Tmax: 1 h
10 mg/kg, rat plasma, PO 10.0 mg eq./kg
  AUC(0-t): 11.2 µM·h
10 mg/kg, rat plasma, PO 10.0 mg eq./kg, read-out: Observed Tmax
  Tmax: 0.5 h
10 mg/kg, rat plasma, SC 10.0 mg eq./kg
  AUC(0-t): 25.8 µM·h
10 mg/kg, rat plasma, SC 10.0 mg eq./kg, read-out: Observed Tmax
  Tmax: 0.5 h
rat, IV 1.22 mg eq./kg
  Kp: 29.1
rat, PO 1.22 mg eq./kg
  Kp: 35.6
rat, PO 10.0 mg eq./kg
  Kp: 22.5
rat, SC 1.0 mg eq./kg
  Kp: 31.4
rat, SC 10.0 mg eq./kg
  Kp: 17.1
plasma, 1.22 mg/kg, rat, IV 1.22 mg eq./kg, read-out: Plasma Clearance (CLp) (converted)
  clearance: 69.2 mL/min/kg
plasma, 1.22 mg/kg, rat, IV 1.22 mg eq./kg
  Vd: 8.62 L/kg
plasma, 1.22 mg/kg, rat, PO 1.22 mg eq./kg
  bioavailability: 36.3%
plasma, 10 mg/kg, rat, PO 10.0 mg eq./kg
  bioavailability: 84.9%
plasma, oral, rat, dose 10 mg/kg, single dose in solution, read-out: C min
  concentration at 24 h: 0.03 µM
plasma, po, rat, dose 1 mg/kg, cross-species summary, read-out: T max
  Tmax: 1 h
plasma, rat, IV 1.22 mg eq./kg
  Vd: 8 to 9 L/kg
plasma, rat, PO 1.22 mg eq./kg
  bioavailability: 36%
plasma, rat, dose 10 mg/kg, cross-species summary, read-out: T max
  Tmax: 0.5 to 1 h
[1]
  AUC(0-inf): 47.6 µM·h
  Cmax: 11 µM
rat, brain, iv, 1.22 mg/kg, rat brain, IV 1.22 mg eq./kg, read-out: Half-life (t½) (converted)
  half-life: 2.28 h
rat, brain, oral, subcutaneous, summary for rats and mice, rat, read-out: brain elimination half-lives after extravascular administrations
  half-life: 2.3 to 3.8 h
rat, brain, po, 1.22 mg/kg, rat brain, PO 1.22 mg eq./kg, estimated using the LOQ for the 24 hr concentration, large imprecision, read-out: Half-life (t½) (converted)
  half-life: < 2.54 h
[2]
  AUC(0-inf): 21.1 µM·h
  Cmax: 2.17 µM
[3]
  AUC(0-inf): 256 µM·h
  Cmax: 25.4 µM
rat, brain, po, 10 mg/kg, rat brain, PO 10.0 mg eq./kg, read-out: Half-life (t½) (converted)
  half-life: 3.7 h
[4]
  AUC(0-inf): 53 µM·h
  Cmax: 10.6 µM
rat, brain, sc, 1 mg/kg, rat brain, SC 1.0 mg eq./kg, read-out: Half-life (t½) (converted)
  half-life: 2.51 h
[5]
  AUC(0-inf): 442 µM·h
  Cmax: 75.4 µM
rat, brain, sc, 10 mg/kg, rat brain, SC 10.0 mg eq./kg, read-out: Half-life (t½) (converted)
  half-life: 2.65 h
rat, plasma, intravenous, oral, subcutaneous, rat, all dose routes and levels (plasma; b142 also brain), read-out: elimination half-life
  half-life: 3 to 4 h
